Laboratory results as given in the NIST ThermoML archive (doi:10.1021/acs.jced.7b00503).

Conditions: Pendant drop shape

O [water]
Conditions | surface tension liquid-gas [mN/m]
293.15 K | 72.75
298.15 K | 71.97
303.15 K | 71.15
313.15 K | 69.55
323.15 K | 67.9
333.15 K | 66.17
343.15 K | 64.39
353.15 K | 62.61
